Laboratory results: patent US20220347297A1, “METHODS OF PERMITTING A SUBJECT TO RECEIVE MULTIPLE DOSES OF RECOMBINANT ADENO-ASSOCIATED VIRUS” (University of Florida Research Foundation, Incorporated, priority 2014, published 2022)
Entries after “also recorded” stand apart in the source; their conditions may differ.

Tests used:
AAV1 capsid proteins = assay: ELISA for circulating antibodies to AAV1 capsid in serum of Pompe subjects; conditions: Pompe patient, rituximab with sirolimus prior to rAAV1-GAA
Method: Serum samples were assayed by ELISA for circulating antibodies to the AAV1 capsid proteins.
Serum samples were assayed by enzyme linked immunosorbent assay (ELISA) for circulating antibodies to the intact AAV1 capsid and hGAA protein 21, 46. Anti-AAV1 and anti-hGAA ASR and ELISPOT assay were performed as previously described on isolated peripheral blood mononuclear cells (ref. 47).

[1] = tested on: B-cells (CD20), CD3 positive lymphocytes; assay: Enumeration of B- and T-lymphocyte subpopulations in peripheral blood by flow cytometry; assay type: in vivo, human; conditions: 375 mg/m^2 weekly for 3 weeks, then at 12 weeks intervals
Method: Enumeration of B- and T-lymphocyte subpopulations in peripheral blood was done by flow cytometry using monoclonal Abs to CD19 or CD20 for B cells and monoclonal Abs to CD3, CD4, and CD8 for T cells. Sirolimus trough levels, IgG, CD3, CD4, CD8, CD19, CD20, N-terminal pro-brain natriuretic peptide, creatine kinase, creatine kinase-MB, C-reactive protein, platelets, alkaline phosphatase, gamma-glutamyl transferase, aspartate aminotransferase, and alanine aminotransferase were measured at regular intervals.

[2] = tested on: anti-rAAV NAbs / GAA antibody responses; conditions: cited from earlier work

Rituximab: monoclonal antibody that induces B-cell depletion by binding the CD20 protein found on the surface of B-cells
immune response to rAAV vector (capsid and transgene) after B-cell depletion prior to vector exposure (AAV1 capsid proteins): immune non-responsiveness; also recorded: nonresponsiveness to both capsid and transgene | CD20 counts (B-cells) [1]: complete depletion | GAA antibody responses to ERT ([2]; CRIM-negative infants with early-onset Pompe disease, Rituximab plus Sirolimus before initiation of ERT (Elder et al.)): able to block GAA antibody responses | existing anti-rAAV NAbs ([2]; humans receiving rituximab for rheumatoid arthritis (ref. 33) and non-human primates): successful in reduction
